In ChEMBL document CHEMBL1201862, “PubChem BioAssay data set” (2004) one finds IC50 and AC50 data, which are given here for three compounds.

Molecules are shown by their SMILES. Calls of active or inactive are those of the source.

Assay [1] deals with T1, Apoptotic protease-activating factor 1 (Homo sapiens, UniProt O14727).
T1 sequence (O14727 whole entry): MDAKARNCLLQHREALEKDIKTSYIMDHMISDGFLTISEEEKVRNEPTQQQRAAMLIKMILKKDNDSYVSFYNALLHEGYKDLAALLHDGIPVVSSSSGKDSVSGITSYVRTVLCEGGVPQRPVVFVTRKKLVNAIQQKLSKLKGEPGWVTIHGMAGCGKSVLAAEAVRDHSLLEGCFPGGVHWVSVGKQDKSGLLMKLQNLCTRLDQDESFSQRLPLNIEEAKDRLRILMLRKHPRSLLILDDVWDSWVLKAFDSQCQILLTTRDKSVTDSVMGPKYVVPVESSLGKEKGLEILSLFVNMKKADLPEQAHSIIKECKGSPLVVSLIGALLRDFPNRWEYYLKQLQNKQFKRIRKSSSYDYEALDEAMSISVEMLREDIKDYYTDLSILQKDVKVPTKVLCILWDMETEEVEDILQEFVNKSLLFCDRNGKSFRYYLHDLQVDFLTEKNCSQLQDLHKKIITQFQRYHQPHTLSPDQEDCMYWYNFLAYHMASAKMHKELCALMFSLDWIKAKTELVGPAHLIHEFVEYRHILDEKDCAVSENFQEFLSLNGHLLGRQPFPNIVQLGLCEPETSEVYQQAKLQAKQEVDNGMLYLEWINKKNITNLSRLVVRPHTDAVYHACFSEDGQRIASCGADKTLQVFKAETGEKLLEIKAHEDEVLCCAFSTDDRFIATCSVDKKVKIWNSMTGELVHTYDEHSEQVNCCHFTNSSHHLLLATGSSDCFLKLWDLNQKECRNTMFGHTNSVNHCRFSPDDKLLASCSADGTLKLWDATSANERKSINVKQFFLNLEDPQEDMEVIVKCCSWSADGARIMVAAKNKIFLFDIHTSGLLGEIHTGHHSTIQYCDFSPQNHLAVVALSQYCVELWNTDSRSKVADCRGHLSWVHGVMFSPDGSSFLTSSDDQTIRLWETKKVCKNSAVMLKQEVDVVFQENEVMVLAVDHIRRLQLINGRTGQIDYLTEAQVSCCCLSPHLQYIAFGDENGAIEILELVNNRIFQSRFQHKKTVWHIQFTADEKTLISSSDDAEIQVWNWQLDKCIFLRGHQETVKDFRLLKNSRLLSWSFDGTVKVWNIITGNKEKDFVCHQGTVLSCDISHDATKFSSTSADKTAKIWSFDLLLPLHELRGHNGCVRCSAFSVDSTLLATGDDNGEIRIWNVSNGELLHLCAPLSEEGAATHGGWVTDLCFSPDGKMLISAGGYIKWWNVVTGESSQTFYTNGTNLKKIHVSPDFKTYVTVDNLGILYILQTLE
It counts as functional.

The target in assay [2] is Paired box protein Pax-8 (Homo sapiens, UniProt Q06710). Briefly: PAX8 transcriptional activity inhibition in RMG-I – RMG-I cells, luciferase, cherry-pick, dose response (AID 687027).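 Also: luciferase reporter driven by Pax8 target thyroperoxidase promoter measured by SteadyGlo luminescence.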 Type of assay: functional, cell-based.
Paired box protein Pax-8, sequence (Q06710 whole entry): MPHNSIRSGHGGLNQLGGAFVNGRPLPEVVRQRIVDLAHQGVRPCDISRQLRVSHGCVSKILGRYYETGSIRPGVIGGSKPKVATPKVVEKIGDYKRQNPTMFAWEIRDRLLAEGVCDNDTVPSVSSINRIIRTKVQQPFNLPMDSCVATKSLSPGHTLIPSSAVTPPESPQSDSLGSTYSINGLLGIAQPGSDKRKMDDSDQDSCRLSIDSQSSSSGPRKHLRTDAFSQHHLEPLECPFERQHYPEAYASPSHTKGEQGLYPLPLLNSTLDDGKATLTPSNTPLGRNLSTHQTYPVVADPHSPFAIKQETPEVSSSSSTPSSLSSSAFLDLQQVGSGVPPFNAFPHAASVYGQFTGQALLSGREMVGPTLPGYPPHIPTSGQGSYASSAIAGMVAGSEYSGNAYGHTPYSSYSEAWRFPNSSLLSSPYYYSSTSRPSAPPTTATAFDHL
Assay [3] can be described thus: Counterscreen for AddAB inhibitors: absorbance-based bacterial cell-based high throughput dose response assay for inhibitors of bacterial viability. [Related pubchem assays (depositor defined):AID435030, AID449728, AID449731, AID488942, AID488955, AID488956]. It counts as functional.
A short description of assay [4]: loss of viability in HepG2 cells – cell-based, CellTiter-Glo, cherry-picked, cytotoxicity control for Shn3 inhibitor project, dose response (AID 624134). It counts as functional. (Cellular ATP, detected with luciferase, serves as a proxy for viable cell number.)
Assay [5] is described as follows: reduction of Shn3 3'UTR-driven luciferase in osteoblasts – cell-based, Clone20 osteoblasts, firefly luciferase, cherry-picked, dose response (AID 624132).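 Also: firefly luciferase luminescence from reporter carrying the Shn3 3'UTR in osteoblasts.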 Type of assay: functional.
The nature of assay [6]: non-specific 3'UTR reporter inhibition in Clone20-Shn3RL – cell-based, Renilla luciferase, cherry-picked, counter-screen for Shn3 inhibitor project, dose response (AID 624133). Type of assay: functional. (In general: The purpose of a counterscreen is to sort out artefacts and off-target activity.)
Assay [7] in a line: blockers of bursicon-stimulated LGR2 cAMP reporter – cell-based, HEK293, CRE-luciferase reporter, cherry pick, set 2, dose response (AID 743343).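 Also: transfected cells were stimulated with diluted bursicon conditioned medium after compound addition.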 It counts as functional. In general terms: Reporter assays use an easily measured gene product as a stand-in for the process of interest.
Assay [8] concerns the target T2, Replicative DNA helicase DnaB (Mycobacterium tuberculosis, UniProt P9WMR3).
T2 sequence (P9WMR3 whole entry): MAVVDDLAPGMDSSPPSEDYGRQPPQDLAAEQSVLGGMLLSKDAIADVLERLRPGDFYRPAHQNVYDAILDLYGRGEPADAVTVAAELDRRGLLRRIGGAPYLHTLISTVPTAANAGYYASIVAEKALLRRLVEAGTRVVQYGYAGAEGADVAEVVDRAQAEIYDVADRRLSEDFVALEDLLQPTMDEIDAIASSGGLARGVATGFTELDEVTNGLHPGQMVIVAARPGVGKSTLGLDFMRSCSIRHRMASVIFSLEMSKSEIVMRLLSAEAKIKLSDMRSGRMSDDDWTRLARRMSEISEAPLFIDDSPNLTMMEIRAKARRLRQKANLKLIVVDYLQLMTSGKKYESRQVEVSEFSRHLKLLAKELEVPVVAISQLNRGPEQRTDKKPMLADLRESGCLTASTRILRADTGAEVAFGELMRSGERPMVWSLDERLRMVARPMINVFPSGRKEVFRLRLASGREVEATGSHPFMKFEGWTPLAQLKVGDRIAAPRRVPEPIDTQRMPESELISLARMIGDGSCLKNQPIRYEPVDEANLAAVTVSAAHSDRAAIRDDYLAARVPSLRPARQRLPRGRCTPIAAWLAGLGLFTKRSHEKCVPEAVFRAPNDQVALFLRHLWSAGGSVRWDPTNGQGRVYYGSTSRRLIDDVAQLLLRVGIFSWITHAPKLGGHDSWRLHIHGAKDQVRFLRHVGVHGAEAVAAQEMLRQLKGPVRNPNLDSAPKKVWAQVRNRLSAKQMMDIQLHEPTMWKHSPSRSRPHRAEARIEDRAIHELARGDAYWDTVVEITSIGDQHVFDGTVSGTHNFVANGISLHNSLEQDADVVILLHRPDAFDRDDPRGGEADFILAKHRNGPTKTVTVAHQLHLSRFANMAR
Nature of the assay: DnaB intein splicing inhibitors, dose response, biochemical, cell-free fluorescence (AID 449749). Type of assay: functional.

What is called IC50 is the concentration at which inhibition is half-maximal. One may read the AC50 as the midpoint of the concentration-response curve, whichever way the signal moves. For `Oc1ccc(/C=N\Nc2cc(N3CCOCC3)nc(N3CCOCC3)n2)c(O)c1`, in assay [1], the IC50 is 7.15 µM (active). Further, the AC50 in assay [2] was 20.4 µM (active).
`Cc1ccc(C)c(S(=O)(=O)N2CCN(Cc3ccc(O)c4ncccc34)CC2)c1`: in assay [3], the IC50 was > 119 µM (inactive). The AC50 in assay [4] was 5.3 µM (active); in assay [5], 2.84 µM (active); in assay [6], 1.23 µM (active).
Regarding `COc1cc(NC(=O)Cn2ncc(Cl)c(Cl)c2=O)c(C)cc1[N+](=O)[O-]`, the AC50 in assay [7] was 23.2 µM (active); in assay [4] it was 40.9 µM (active); in assay [8] it was 26.6 µM (active); in assay [5], 3.44 µM (active); in assay [2], 4.62 µM (active); in assay [6], 3.3 µM (active).
